Among the test systems are PC-3 prostate; NCI-H23 lung; UACC-62 melanoma; OVCAR-5 ovarian; SK-MEL-5 melanoma; SNB-19 CNS; SK-MEL-2 melanoma; SK-OV-3 ovarian; U251 CNS; M14 melanoma.
Experiment in all cases: DTP human tumour cell line panel, 48 h

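Method: 48-hour compound exposure of cells in 96-well plates, five concentrations, linear interpolation of endpoints. Here, GI50 denotes the concentration required for 50% inhibition of growth. TGI marks complete inhibition of growth.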 Where only a bound is given, the exact number is not on record here.

Regarding `Cc1sc2nc(NCCc3c[nH]c4ccc(Cl)cc34)[nH]c(=O)c2c1C`, the GI50 is 2.05 µM in the assay on PC-3 prostate; 2.39 µM in the assay on NCI-H23 lung; 2.96 µM in the assay on UACC-62 melanoma; 2.97 µM in the assay with OVCAR-5 ovarian; 1.98 µM in the assay with SK-MEL-5 melanoma; 3.54 µM in the assay on SNB-19 CNS. The GI50 in the assay with SK-MEL-2 melanoma is 2.62 µM; in the assay on SK-OV-3 ovarian it was 3.22 µM; in the assay on U251 CNS, 2.26 µM; in the assay with M14 melanoma, 2.4 µM. Moreover, the TGI with PC-3 prostate was 8.91 µM; with NCI-H23 lung it was 6.22 µM; with UACC-62 melanoma it was 12.7 µM; in the assay on OVCAR-5 ovarian, 11.7 µM; with SK-MEL-5 melanoma, 3.88 µM; with SNB-19 CNS it was 13.2 µM. Also, the TGI is 9.29 µM in the assay on SK-MEL-2 melanoma, 14.5 µM in the assay on SK-OV-3 ovarian, 6.94 µM in the assay with U251 CNS and 9.49 µM with M14 melanoma.

For `OCCCCC#Cc1ccccc1C#Cc1cccc(O)c1`, the GI50 with PC-3 prostate was 16.9 µM; in the assay on NCI-H23 lung, 18 µM; with UACC-62 melanoma it was 13.3 µM; in the assay on OVCAR-5 ovarian, 16.9 µM; with SK-MEL-5 melanoma it was 17.8 µM; in the assay on SNB-19 CNS, 15.5 µM. Also, the GI50 with SK-MEL-2 melanoma is 18.6 µM; in the assay with SK-OV-3 ovarian it was 19.1 µM; with U251 CNS it was 15 µM; with M14 melanoma, 17.4 µM. The TGI in the assay on PC-3 prostate was 38.1 µM; in the assay with NCI-H23 lung, 36.1 µM; in the assay with UACC-62 melanoma, 26.9 µM; with OVCAR-5 ovarian, 32.1 µM; in the assay on SK-MEL-5 melanoma it was 32.7 µM; with SNB-19 CNS, 32.8 µM. Moreover, the TGI in the assay with SK-MEL-2 melanoma worked out at 38.8 µM; with SK-OV-3 ovarian it was 43.3 µM; with U251 CNS it was 31.3 µM; in the assay on M14 melanoma, 35.1 µM.

As to `COc1cc(/C=C2\C(=O)Nc3ccc(F)cc32)cc(OC)c1OC`, the GI50 was 40.4 µM in the assay on PC-3 prostate; 24 µM with NCI-H23 lung; 11.7 µM with UACC-62 melanoma; over 100 µM with OVCAR-5 ovarian; 17.3 µM in the assay with SK-MEL-5 melanoma; 38.4 µM with SNB-19 CNS. In addition, the GI50 was 96.4 µM in the assay with SK-MEL-2 melanoma, over 100 µM in the assay on SK-OV-3 ovarian, 13.5 µM with U251 CNS and 63.5 µM with M14 melanoma. Besides, the TGI in the assay on PC-3 prostate, with NCI-H23 lung, in the assay with UACC-62 melanoma, in the assay with OVCAR-5 ovarian, in the assay on SK-MEL-5 melanoma and in the assay on SNB-19 CNS was over 100 µM throughout. Besides, the TGI is over 100 µM in the assay on SK-MEL-2 melanoma, over 100 µM in the assay with SK-OV-3 ovarian, 49.4 µM in the assay with U251 CNS and over 100 µM in the assay on M14 melanoma.

Consider `O=C1/C(=C\c2cccn2Cc2ccccc2)c2ccccc2N1c1c(Cl)cccc1Cl`, for which the GI50 in the assay with PC-3 prostate was 5.93 µM; in the assay with NCI-H23 lung, over 63 µM; in the assay with UACC-62 melanoma, 3.28 µM; in the assay on OVCAR-5 ovarian, 4.37 µM; in the assay with SK-MEL-5 melanoma it was 3.02 µM; in the assay on SNB-19 CNS it was over 100 µM. The GI50 is 2.4 µM in the assay on SK-MEL-2 melanoma, over 100 µM in the assay on SK-OV-3 ovarian, over 100 µM in the assay on U251 CNS and over 100 µM in the assay on M14 melanoma. Further, the TGI with PC-3 prostate, with NCI-H23 lung, in the assay with UACC-62 melanoma, with OVCAR-5 ovarian, in the assay on SK-MEL-5 melanoma and in the assay with SNB-19 CNS was over 100 µM throughout. For the same molecule, the TGI with SK-MEL-2 melanoma was over 30.1 µM; with SK-OV-3 ovarian, over 100 µM; in the assay on U251 CNS, over 100 µM; in the assay with M14 melanoma, over 100 µM.

Regarding `Cc1ccc(Nc2nc(N)c(C(=O)c3ccc(C#N)cc3)s2)cc1`, the GI50 in the assay with PC-3 prostate is 0.347 µM; with NCI-H23 lung, 0.743 µM; in the assay with UACC-62 melanoma it was 0.416 µM; in the assay on OVCAR-5 ovarian it was 2.98 µM; in the assay with SK-MEL-5 melanoma, 0.32 µM; with SNB-19 CNS, 0.509 µM. Also, the GI50 in the assay on SK-MEL-2 melanoma was 0.435 µM; in the assay with SK-OV-3 ovarian it was 0.449 µM; in the assay with U251 CNS it was 0.434 µM; in the assay on M14 melanoma, 0.308 µM. Also, the total growth inhibition concentration (TGI) is over 100 µM with PC-3 prostate; over 100 µM in the assay on NCI-H23 lung; over 100 µM in the assay on UACC-62 melanoma; over 100 µM with OVCAR-5 ovarian; 10.7 µM with SK-MEL-5 melanoma; 53.5 µM in the assay with SNB-19 CNS. The TGI with SK-MEL-2 melanoma is 46.1 µM; in the assay on SK-OV-3 ovarian, 46 µM; in the assay on U251 CNS it was over 87.3 µM; with M14 melanoma it was over 100 µM.

As to `NC(N)=N/N=C/c1cc(Cl)cc(Cl)c1O`, the concentration for total growth inhibition (TGI) in the assay with PC-3 prostate, in the assay on NCI-H23 lung, in the assay with UACC-62 melanoma, in the assay on OVCAR-5 ovarian, in the assay on SK-MEL-5 melanoma and with SNB-19 CNS was over 100 µM throughout. In addition, the TGI with SK-MEL-2 melanoma, in the assay with SK-OV-3 ovarian, in the assay on U251 CNS and in the assay with M14 melanoma was over 100 µM throughout.

These data come from PubChem BioAssay (NCI).
